Experimental findings from patent US20190224279A1, “PHARMACEUTICAL ASSOCIATION COMPRISING A GROWTH FACTOR RECEPTOR AGONIST CONJUGATED TO A BIOACTIVE CARRIER FOR CONVERTING A NEOPLASTIC CELL INTO A NON-NEOPLASTIC CELL AND USES THEREOF” (HISTIDE AG, priority 2015, published 2019) are described below.

Assay [1] deals with Smad1/5/8 signaling pathway. Description: Growth factor receptor activation: quantification of western blots of phospho-Smad1/5/8. Type of assay: cell-based. The conditions noted are these: human osteosarcoma cells MG63; 400 ng/mL GFR-binding compound; Table 4. As for the experimental part:
After 24 hours of culture, cells were permeabilized (10% SDS, 25 mM NaCl, 10 nM pepstatin and 10 nM leupeptin in distilled water and loading buffer), boiled for 10 minutes and resolved by reducing PAGE (Invitrogen). Proteins were transferred onto nitrocellulose, blocked, and labeled with HRP-conjugated antibodies (Invitrogen). Integrin αv, α5, α3, α4, β1, β, β5 and […] were blotted by treating the nitrocellulose with monoclonal anti-integrin (extracellular domain) αv, α5, α3, α4, β1, β3, β5 and β6 antibodies (Santa Cruz Biotechnology). Phosphor-Smad1/5/8 was blotted by treating the nitrocellulose with monoclonal anti-p-Smad1/5/8 (Santa Cruz Biotechnology). For all of the experiments the western blot was performed in triplicate, along with an additional blot for actin and coomassie blue staining to ensure constant protein load among samples.
Background: A western blot detects proteins with antibodies after separation by electrophoresis.

Assay [2] has as its system human osteosarcoma cells, MG63. The assay can be described thus: Tumor cell recoding via quantification of pRB (immunofluorescence, ImageJ). Type of assay: cell-based. As for the experimental part:
The cells were first fixed for 20 min with 4% paraformaldehyde/PBS at 4° C. After fixation, the cells were permeabilized in PBS containing 1% Triton X-100 for 15 min. Protein immunofluorescent visualization was performed by first treating the cells with 1% (v/v) specific monoclonal antibodies for 1 hour at 37° C. Then the samples were incubated with Alexa Fluor® 568 or 647 (F(ab′)2 fragment of IgG(H+L)) during 30 min at room temperature. The cell nuclei were counterstained in 20 ng/mL DAPI for 10 min at room temperature.
For this type of quantification the freeware image analysis ImageJ® software was used. The raw image was first converted to an 8-bit file, and then the unsharp mask feature was used (settings 1:0.2) to remove the image background (rolling ball radius 10). After smoothing, the resulting image, which appears similar to the original photomicrograph but with minimal background, was then converted to a binary image by setting a threshold. Threshold values were determined empirically by selecting a setting, which gave the most accurate binary image for a subset of randomly selected photomicrographs. The cell area was determined by manual delineation on raw fluorescent images. Total contact area and mean contact area per cell were calculated by “analyse particules” in ImageJ®. A minimum of 50 cells per condition were analyzed.
Neoplastic cells (in this example osteosarcoma cells) were cultured on pharmaceutical associations comprising PET as a bioactive carrier and one of GFR-binding compounds of SEQ ID NO: 11 to 14, 24 to 26 and 51 to 63. A rapid (24 hours) decrease of the tumor markers was observed (FIG. 7). The adhesion checkpoint then activates the tumor suppressor proteins p53 and pRB. […]

For the sequence “VPTKLSAISTLYLDLAREEPLKNYQEMVVE (Non-cyclic GFR-binding peptide) [SEQ ID NO: 87]”, the “p-Smad1/5/8 (%)” value in assay [1] was determined as 38%. Moreover, the “pRB (%)” value in assay [2] (Table 4) and in assay [2] (Table 5) was 16% throughout.
In the case of “NDEGLECVPTEERPVQVRKIRIKPHQGQKKATVFLQHNK [SEQ ID NO: 79] (Non-cyclic GFR-binding peptide)”, the “p-Smad1/5/8 (%)” value in assay [1] turned out to be 27%. In addition, the “pRB (%)” value in assay [2] (Table 4) and in assay [2] (Table 5) was 21% throughout.
Take “VPTKLSPISILYIDDMGVPTYKQYEEGMSVAE (Non-cyclic GFR-binding peptide) [SEQ ID NO: 67]”: in assay [1], the “p-Smad1/5/8 (%)” value was determined as 40%. Besides, the “pRB (%)” value in assay [2] (Table 4) and in assay [2] (Table 5) was 9% each time.
With “VPQALSPISILFIVGRKPKVYKQYEMIVERS (Non-cyclic GFR-binding peptide) [SEQ ID NO: 89]”, the “p-Smad1/5/8 (%)” value in assay [1] came out at 41%. The “pRB (%)” value in assay [2] (Table 4) and in assay [2] (Table 5) was 18% each time.
With “TPTKMSPINMLYFNEKNNIIYGKIPGM (Non-cyclic GFR-binding peptide) [SEQ ID NO: 94]”, the “p-Smad1/5/8 (%)” value in assay [1] came out at 41%. The “pRB (%)” value in assay [2] (Table 4) and in assay [2] (Table 5) was 20% each time.
“APTKLEPLPMVYYEERRNVIEQLSNNMVVR (Non-cyclic GFR-binding peptide) [SEQ ID NO: 86]”: the “p-Smad1/5/8 (%)” value in assay [1] is recorded as 34%. For the same sequence, the “pRB (%)” value in assay [2] (Table 4) and in assay [2] (Table 5) was 11% throughout.
As for “APTQLSAISTLYLEIVRKKPLKNYQEMEDH (Non-cyclic GFR-binding peptide) [SEQ ID NO: 78]”, in assay [1], the “p-Smad1/5/8 (%)” value was determined as 58%. Besides, the “pRB (%)” value in assay [2] (Table 4) and in assay [2] (Table 5) was 20% in each case.
Consider “VPTELSPISILFIRIKPHQGHLGEMSAAVVE (Non-cyclic GFR-binding peptide) [SEQ ID NO: 70]”, for which the “p-Smad1/5/8 (%)” value in assay [1] came to 30%. Moreover, the “pRB (%)” value in assay [2] (Table 4) and in assay [2] (Table 5) was 24% in each case.
Take “SRVHHNAISTLYFDESSNVILKKYRGMSVVE (Non-cyclic GFR-binding peptide) [SEQ ID NO: 91]”: in assay [1], the “p-Smad1/5/8 (%)” value came out at 56%. Also, the “pRB (%)” value in assay [2] (Table 4) and in assay [2] (Table 5) was 9% in each case.
For “VSQDLSAISTLYLKIVRKEPLKNYQEMVEE (Non-cyclic GFR-binding peptide) [SEQ ID NO: 98]”, in assay [1], the “p-Smad1/5/8 (%)” value stood at 39%. Also, the “pRB (%)” value in assay [2] (Table 4) and in assay [2] (Table 5) was 9% in each case.
For the sequence “VPTHHSAISMLYLELGGDKPLENYQFLQ (Non-cyclic GFR-binding peptide) [SEQ ID NO: 97]”, the “p-Smad1/5/8 (%)” value in assay [1] was found to be 46%. The “pRB (%)” value in assay [2] (Table 4) and in assay [2] (Table 5) was 9% each time.
“ASASPSSVPQDLEPLTILYYVGRTPKVEQLSNMV (Non-cyclic GFR-binding peptide) [SEQ ID NO: 65]”: the “p-Smad1/5/8 (%)” value in assay [1] is reported as 38%. Moreover, the “pRB (%)” value in assay [2] (Table 4) and in assay [2] (Table 5) was 18% throughout.
Consider “APTKLEPLTIVYYDDSSNVIEQLSNNMVVR (Non-cyclic GFR-binding peptide) [SEQ ID NO: 88]”, for which the “p-Smad1/5/8 (%)” value in assay [1] was found to be 32%. Further, the “pRB (%)” value in assay [2] (Table 4) and in assay [2] (Table 5) was 21% each time.
As for “ASASPSSVPQDLEPLTILYYVGRTPKVEQLSNMVEDH (Non-cyclic GFR-binding peptide) [SEQ ID NO: 80]”, in assay [1], the “p-Smad1/5/8 (%)” value amounted to 34%. In addition, the “pRB (%)” value in assay [2] (Table 4) and in assay [2] (Table 5) was 17% in each case.
In the case of “VPQALSPINMLYFNEKNQIIYGKIPFLQHNK (Non-cyclic GFR-binding peptide) [SEQ ID NO: 75]”, in assay [1], the “p-Smad1/5/8 (%)” value amounted to 54%. Besides, the “pRB (%)” value in assay [2] (Table 4) and in assay [2] (Table 5) was 8% throughout.
Consider “RNVQCRPTQLEPLPIVYYEIVRKKPEQLSNTLE (Non-cyclic GFR-binding peptide) [SEQ ID NO: 95]”, for which the “p-Smad1/5/8 (%)” value in assay [1] is recorded as 29%. The “pRB (%)” value in assay [2] (Table 4) and in assay [2] (Table 5) was 8% in each case.
Turning to “TQVQLEPLTLLYYDENEKVIEQLSNDMVVE (Non-cyclic GFR-binding peptide) [SEQ ID NO: 71]”, the “p-Smad1/5/8 (%)” value in assay [1] amounted to 47%. For the same sequence, the “pRB (%)” value in assay [2] (Table 4) and in assay [2] (Table 5) was 19% each time.
Take “VPQALNAISTLYFDDSSNVILKKYRNMAVS (Non-cyclic GFR-binding peptide) [SEQ ID NO: 72]”: the “p-Smad1/5/8 (%)” value in assay [1] is 48%. Also, the “pRB (%)” value in assay [2] (Table 4) and in assay [2] (Table 5) was 11% each time.
As to “VPEKMSSLSILFFDENKNVVLKVYPNMAVS (Non-cyclic GFR-binding peptide) [SEQ ID NO: 73]”, the “p-Smad1/5/8 (%)” value in assay [1] stood at 44%. Besides, the “pRB (%)” value in assay [2] (Table 4) and in assay [2] (Table 5) was 17% throughout.
For the sequence “VPQALSPISILYIDDMGVPTYKQYEEGMSVAE (Non-cyclic GFR-binding peptide) [SEQ ID NO: 68]”, the “p-Smad1/5/8 (%)” value in assay [1] turned out to be 39%. For the same sequence, the “pRB (%)” value in assay [2] (Table 4) and in assay [2] (Table 5) was 7% in each case.
With “RNVQCRPTQLEPLPIVYYEIVRKKPEQLSNTLEDHLA [SEQ ID NO: 66] (Non-cyclic GFR-binding peptide)”, the “p-Smad1/5/8 (%)” value in assay [1] came out at 38%. For the same sequence, the “pRB (%)” value in assay [2] (Table 4) and in assay [2] (Table 5) was 21% each time.
With “VPARLSPISILYIDAANNVVYKQYEDMVKS (Non-cyclic GFR-binding peptide) [SEQ ID NO: 93]”, in assay [1], the “p-Smad1/5/8 (%)” value turned out to be 44%. Moreover, the “pRB (%)” value in assay [2] (Table 4) and in assay [2] (Table 5) was 8% throughout.
On to “APTQLSAISTLYLEIVRKKPLKNYQFLQHNK (Non-cyclic GFR-binding peptide) [SEQ ID NO: 77]”, for which the “p-Smad1/5/8 (%)” value in assay [1] is recorded as 52%. The “pRB (%)” value in assay [2] (Table 4) and in assay [2] (Table 5) was 14% throughout.
Turning to “VPTEESNITTQIMRIKPHQGQHIGEMSFLQH [SEQ ID NO: 84] (Non-cyclic GFR-binding peptide)”, the “p-Smad1/5/8 (%)” value in assay [1] is listed as 22%. Also, the “pRB (%)” value in assay [2] (Table 4) and in assay [2] (Table 5) was 10% each time.
Consider “TPTKMSPINMLYFNEKNNIIYGKIPGMVVD (Non-cyclic GFR-binding peptide) [SEQ ID NO: 76]”, for which, in assay [1], the “p-Smad1/5/8 (%)” value worked out at 55%. For the same sequence, the “pRB (%)” value in assay [2] (Table 4) and in assay [2] (Table 5) was 15% throughout.
Consider “VPTHHSAISTLYLELAGEKPLKNYQFLQHNK (Non-cyclic GFR-binding peptide) [SEQ ID NO: 96]”, for which the “p-Smad1/5/8 (%)” value in assay [1] was 47%. Further, the “pRB (%)” value in assay [2] (Table 4) and in assay [2] (Table 5) was 7% in each case.
Regarding “RNVQCRPTQLEPLPIVYYEIVRKKPEQLSNTLEDHLA [SEQ ID NO: 81] (Non-cyclic GFR-binding peptide)”, the “p-Smad1/5/8 (%)” value in assay [1] was determined as 41%. Also, the “pRB (%)” value in assay [2] (Table 4) and in assay [2] (Table 5) was 19% throughout.
For “NDEGLECVPTEERPVQVRKIRIKPHQGQKKATVFLQHNK [SEQ ID NO: 64] (Non-cyclic GFR-binding peptide)”, the “p-Smad1/5/8 (%)” value in assay [1] is 36%. Besides, the “pRB (%)” value in assay [2] (Table 4) and in assay [2] (Table 5) was 14% each time.
With “VPEKMSSLSILFFDENKNAALKVYPNMTVE (Non-cyclic GFR-binding peptide) [SEQ ID NO: 92]”, the “p-Smad1/5/8 (%)” value in assay [1] is on record as 52%. Also, the “pRB (%)” value in assay [2] (Table 4) and in assay [2] (Table 5) was 8% each time.
With “VPTKLSPISILYIDKMGVPTYKQYEEGMSVAE (Non-cyclic GFR-binding peptide) [SEQ ID NO: 82]”, in assay [1], the “p-Smad1/5/8 (%)” value came out at 35%. For the same sequence, the “pRB (%)” value in assay [2] (Table 4) and in assay [2] (Table 5) was 16% each time.
Take “VPARLSPISILYIDAANNVVYKQYEDM (Non-cyclic GFR-binding peptide) [SEQ ID NO: 74]”: in assay [1], the “p-Smad1/5/8 (%)” value is 51%. Further, the “pRB (%)” value in assay [2] (Table 4) and in assay [2] (Table 5) was 10% each time.
Regarding “VPQALSPISILFIRLKPHQGHLGEMSNMVVR (Non-cyclic GFR-binding peptide) [SEQ ID NO: 85]”, in assay [1], the “p-Smad1/5/8 (%)” value was found to be 26%. For the same sequence, the “pRB (%)” value in assay [2] (Table 4) and in assay [2] (Table 5) was 24% each time.
For “VPTEESNITTQIMRIKPHQGQHIGEMSFLQH [SEQ ID NO: 69] (Non-cyclic GFR-binding peptide)”, the “p-Smad1/5/8 (%)” value in assay [1] stood at 32%. Besides, the “pRB (%)” value in assay [2] (Table 4) and in assay [2] (Table 5) was 23% each time.
Take “VPARLSPISILYIDEMGVPTYKQYEEGMSVAE (Non-cyclic GFR-binding peptide) [SEQ ID NO: 83]”: the “p-Smad1/5/8 (%)” value in assay [1] was determined as 33%. In addition, the “pRB (%)” value in assay [2] (Table 4) and in assay [2] (Table 5) was 9% each time.
